pEC50, pIC50, pKi: −log10 of the molar value. Values after ≈ are worked out from the molar mass of the structure shown.

In assay [1] the test system is K562. Briefly: Antiproliferative activity against human K562 cells assessed as reduction in cell viability incubated for 48 hrs by CCK-8 assay. The note with it: K562, 48 h. The format is functional, cell-based.
The subject of assay [2] is DU-145. Briefly: Cytotoxicity against human DU-145 cells assessed as reduction in cell viability incubated for 48 hrs by MTS assay. The format is functional, cell-based. The note with it: DU-145, time 48 hrs.
Assay [3] concerns BT-474. The experiment in a line: Cytotoxicity against human BT-474 cells assessed as reduction in cell viability incubated for 48 hrs by MTS assay. The format is functional, cell-based. The note with it: BT-474, time 48 hrs.
Assay [4] has as its system MCF7. Briefly: Antiproliferative activity against human MCF7 cells assessed as inhibition of cell growth incubated for 48 hrs. The format is functional, cell-based. The note with it: MCF7, 48 h, pooled result: one value given for 9 cell lines, strains, targets or settings.
Assay [5] has as its system MIA PaCa-2. The experiment in a line: Cytotoxicity against human MIA PaCa-2 cells assessed as reduction in cell viability incubated for 48 hrs by MTS assay. The format is functional, cell-based. The note with it: MIA PaCa-2, time 48 hrs.
The test system of assay [6] is JIMT-1. Briefly: Cytotoxicity against human JIMT-1 cells assessed as reduction in cell viability incubated for 48 hrs by MTS assay. The format is functional, cell-based. The note with it: JIMT-1, time 48 hrs.
The test system of assay [7] is NCI-H292. Briefly: Cytotoxicity against human NCI-H292 cells assessed as reduction in cell viability incubated for 4 days by WST-1 assay. The note with it: NCI-H292, 96 h. The format is functional, cell-based.
Assay [8] concerns NCI/ADR-RES. The experiment in a line: Growth inhibition of human multi-drug resistant MCF7/Adr cells incubated for 72 hrs by sulforhodamine B staining assay. The format is functional.
The subject of assay [9] is MCF7. Briefly: Growth inhibition of human MCF7 cells incubated for 72 hrs by sulforhodamine B staining assay. The format is functional.
In assay [10] the test system is L1210. Briefly: Growth inhibition of mouse L1210 cells incubated for 72 hrs by sulforhodamine B staining assay. The format is functional.
Assay [11] in a line: Growth inhibition of mouse Lewis lung carcinoma cell line incubated for 72 hrs by sulforhodamine B staining assay. The format is functional.
In assay [12] the target is Sarcoplasmic/endoplasmic reticulum calcium ATPase 1 (Oryctolagus cuniculus, UniProt P04191). The experiment in a line: Inhibition of SERCA1a in rabbit Sarcoplasmic reticulum assessed as inhibition constant in presence of [gamma-32P]ATP and calcium ionophore A23187 by coupled enzyme assay. The format is subcellular.
Sequence of Sarcoplasmic/endoplasmic reticulum calcium ATPase 1 (P04191 whole entry): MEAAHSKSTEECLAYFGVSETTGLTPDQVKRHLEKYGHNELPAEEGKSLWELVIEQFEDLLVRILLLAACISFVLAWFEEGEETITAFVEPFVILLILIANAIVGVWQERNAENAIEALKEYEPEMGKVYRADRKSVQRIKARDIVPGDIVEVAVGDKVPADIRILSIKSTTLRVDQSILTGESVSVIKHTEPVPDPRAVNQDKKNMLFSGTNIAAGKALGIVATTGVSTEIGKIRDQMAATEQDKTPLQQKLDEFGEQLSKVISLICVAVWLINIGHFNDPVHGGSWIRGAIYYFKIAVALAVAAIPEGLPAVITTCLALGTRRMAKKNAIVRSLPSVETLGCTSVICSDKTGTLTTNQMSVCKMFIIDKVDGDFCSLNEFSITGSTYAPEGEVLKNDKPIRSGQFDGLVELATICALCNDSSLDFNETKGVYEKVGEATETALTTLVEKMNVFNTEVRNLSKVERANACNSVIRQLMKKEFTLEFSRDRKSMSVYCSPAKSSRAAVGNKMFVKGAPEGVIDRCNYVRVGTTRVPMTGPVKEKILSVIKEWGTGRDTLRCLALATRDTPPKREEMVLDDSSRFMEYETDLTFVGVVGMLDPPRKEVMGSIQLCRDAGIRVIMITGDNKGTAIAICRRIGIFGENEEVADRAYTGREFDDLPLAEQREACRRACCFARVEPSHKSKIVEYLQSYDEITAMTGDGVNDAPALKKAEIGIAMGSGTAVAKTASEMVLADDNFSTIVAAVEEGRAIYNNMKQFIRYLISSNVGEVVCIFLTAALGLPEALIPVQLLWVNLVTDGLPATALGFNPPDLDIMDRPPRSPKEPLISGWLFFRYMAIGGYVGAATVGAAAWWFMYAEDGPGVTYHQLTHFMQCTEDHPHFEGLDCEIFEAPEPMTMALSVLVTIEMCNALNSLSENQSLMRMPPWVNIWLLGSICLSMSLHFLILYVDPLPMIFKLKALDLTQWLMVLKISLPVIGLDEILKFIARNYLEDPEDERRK
Assay [13] concerns HeLa S3. Briefly: Cytotoxicity against human HeLa S3 cells assessed as inhibition of cell proliferation incubated for 72 hrs by MTT assay. The note with it: HeLa S3, 72 h. The format is functional, cell-based.
For assay [14], the system named is Ca-Ski. The experiment in a line: Cytotoxicity against human Ca-Ski cells assessed as inhibition of cell growth incubated for 24 hrs by MTT assay. The format is functional, cell-based.
The test system of assay [15] is HeLa. The experiment in a line: Cytotoxicity against human HeLa cells assessed as inhibition of cell growth incubated for 24 hrs by MTT assay. The format is functional, cell-based.
Assay [16] has as its system HeLa S3. The experiment in a line: Cytotoxicity against human HeLa S3 cells assessed as cell growth inhibition incubated for 48 hrs by MTT assay. The format is functional, cell-based. The note with it: HeLa S3, 48 h.
Assay [17] deals with HEp-2. Briefly: Cytotoxicity against human HEp-2 cells assessed as cell growth inhibition by measuring effective dose. The note with it: read-out: ED50 (the source's name). The format is functional.
Assay [18] relates to BV-173. Briefly: Cytotoxicity against human BV-173 cells assessed as inhibition of cell growth incubated for 72 hrs by MTT assay. The format is functional, cell-based. The note with it: BV-173, 72 h.
For assay [19], the system named is HL-60. The experiment in a line: Cytotoxicity against human HL-60 cells assessed as inhibition of cell growth incubated for 72 hrs by MTT assay. The format is functional, cell-based. The note with it: HL-60, 72 h.
Assay [20] in a line: Cytotoxicity against human JMSU-1 cells assessed as inhibition of cell growth incubated for 72 hrs by MTT assay. The format is functional, cell-based. The note with it: JMSU-1, 72 h.
Assay [21] deals with MCF7. The experiment in a line: Antiproliferative activity against human MCF7 cells assessed as cell growth inhibition by measuring minimum inhibitory concentration incubated for 48 hrs by MTT assay. The format is functional.
Assay [22] can be described thus: Cytotoxicity against human SKW-3 cells assessed as inhibition of cell growth incubated for 72 hrs by MTT assay. The format is functional, cell-based. The note with it: SKW3, 72 h.
The test system of assay [23] is MDA-MB-231. The experiment in a line: Inhibition of cell migration in human MDA-MB-231 cells incubated upto 48 hrs by inverted microscopic analysis. The format is functional.
Assay [24] relates to MDA-MB-231. The experiment in a line: Cytotoxicity against human MDA-MB-231 cells assessed as cell growth inhibition incubated for 48 hrs by crystal violet staining based spectrofluorimeter assay. The format is functional. The note with it: MDA-MB-231, 48 h.
Assay [25] relates to MCF7. Briefly: Inhibition of cell growth in human MCF7 cells at 6 ug/ml incubated for 96 hrs. The format is functional.
Assay [26] concerns MDA-MB-231. The experiment in a line: Inhibition of cell growth in human MDA-MB-231 cells at 6 ug/ml incubated for 96 hrs. The format is functional.

Turning to `CCCCCCCCCCN1C[C@@H](O)[C@@H](O)C1`, the pIC50 in assay [1] is 4.75.

In the case of `CCCCCCCCCCCCCCCCOC[C@H](CO[C@@H]1O[C@H](CO)[C@@H](O)[C@H](O)[C@H]1N)OC`, the half-maximal cytotoxic concentration (CC50) in [2] came to 10 µM; in assay [3] it was 8 µM; in assay [5], 9 µM; in [6], 9 µM. Also, the negative-log IC50 (pIC50) in assay [4] is 5.39.

`COC[C@@H](C[C@H]1O[C@@](O)([C@H](O)[C@@H]2C[C@H](OC)[C@@H](O)CC/C=C(C)/C=C/[C@@H](O[C@@H]3O[C@@H](C)[C@H](OC)[C@@H](O)[C@@H]3O)[C@H](C)/C=C(C)/C=C(C)/C=C(/C)C(=O)O2)[C@H](C)[C@@H](O)[C@H]1C)O[C@H]1C[C@](C)(O)[C@@H](O[C@H]2C[C@@H](OC)[C@H](O)[C@@H](C)O2)[C@H](C)O1`: in [7], the pEC50 is 6.82.

Turning to `CCCCCCCCCCCCCCCCOC[C@H](CO[C@H]1C[C@@H](O)[C@H](O)[C@@H](CO)O1)OC`, the GI50 in assay [8] is 12.8 µM; in [9], 6.93 µM; in assay [10], 7.09 µM; in assay [11], 11.1 µM.

As for `C/C=C/C/C(C)=C\[C@H]1C[C@H]2C=C[C@H](C[C@H](C)/C=C(\C)[C@@H](OC)C/C=C/[C@@H](O[C@@H]3O[C@H](CO)[C@@H](O)[C@H](OC)[C@H]3O)CC(=O)O1)OO2`, in assay [12], the pKi was 7.74. In assay [13], the negative-log IC50 (pIC50) is less than 5.00.

In the case of `CC(=O)OC[C@H]1O[C@H]2O[C@@H](C)CCCCCC/C=C/CCCCCC(=O)O[C@@H]3[C@@H](O)[C@H](O[C@@H]2[C@@H](O)[C@@H]1O)O[C@H](COC(C)=O)[C@H]3O`, the figures for the IC50 in assay [14] and in assay [15] were 82.2 mg/L (≈ 124 µM) and 62.9 mg/L (≈ 95.3 µM), respectively.

Regarding `C/C=C\C/C=C\C/C=C\C/C=C\C/C=C\CCCC(=O)OCC(CO[C@H]1O[C@H](CS(=O)(=O)O)[C@@H](O)[C@H](O)[C@H]1O)OC(=O)CCCCCCCCCCCCCCC` (stereo partly drawn), the pIC50 in assay [16] is 4.10.

With `CCCCCCCCCCCC(=O)O[C@@H]1[C@@H](O)[C@@H](OC(=O)/C=C/c2ccccc2)[C@H](O[C@@H]2[C@@H](O)[C@@H](OC(=O)[C@@H](C)CC)[C@H](O[C@@H]3[C@@H](O)[C@H]4OC(=O)CCCCCCCCC[C@@H](CCCCC)O[C@@H]5O[C@H](CO)[C@@H](O)[C@H](O)[C@H]5O[C@@H]4O[C@H]3C)O[C@H]2C)O[C@H]1C`, the EC50 in assay [17] stood at 3.5 mg/L (≈ 2.8 µM).

For `CCCCCCCCCC[C@@H](CC(=O)O)OC(=O)C[C@H](CCCCCCCCCC)O[C@@H]1O[C@@H](C)[C@H](O)[C@@H](O)[C@H]1O`, the negative-log IC50 (pIC50) is 4.30 in [18], 4.17 in [19], 4.22 in [20] and 4.27 in assay [22]. In addition, the MIC in [21] amounted to 6.25 mg/L (≈ 10.6 µM).

`CC(=O)OC[C@H]1O[C@H]2O[C@@H](C)CCCCCC/C=C\CCCCCCCC(=O)O[C@@H]3[C@@H](O)[C@H](O[C@@H]2[C@@H](O)[C@@H]1O)O[C@H](COC(C)=O)[C@H]3O`: the “inhibition (INH)” value in assay [23] turned out to be 41.5%. The values for the IC50 in assay [14] and in [15] were 25.3 mg/L (≈ 36.8 µM) and 12.2 mg/L (≈ 17.8 µM), respectively. Besides, the pIC50 in assay [24] is 4.66.

For the compound `CC/C=C\C/C=C\C/C=C\CCCCCCCC(=O)OC[C@@H](CO[C@@H]1O[C@H](CO)[C@H](O)[C@H](O)[C@H]1O)OC(=O)CCCCCCC/C=C\C/C=C\C/C=C\CC`, the inhibition at 6 µg/mL in assay [25] and in assay [26] was 90% in each case.

These data come from ChEMBL document CHEMBL5260828, “Amphiphilic glycoconjugates as potential anti-cancer chemotherapeutics” (Eur J Med Chem, 2018).
